A short description of the data set: Solubility of vancomycin as a function of pH (base crystallization). The data set is classed as physicochemical. The note with it: pH 9; pH of 9.0 to 9.5. From the text:
Prior to the base crystallization step, the pH of the solution must be optimized to maximize the efficiency of the crystallization. […]

In brackets after ≈: the same amount, converted by molar mass.

By solubility is commonly meant the concentration that dissolves in the medium under given conditions.

In the case of `CN[C@H](CC(C)C)C(=O)N[C@H]1C(=O)N[C@@H](CC(N)=O)C(=O)N[C@H]2C(=O)N[C@H]3C(=O)N[C@H](C(=O)N[C@H](C(=O)O)c4cc(O)cc(O)c4-c4cc3ccc4O)[C@H](O)c3ccc(c(Cl)c3)Oc3cc2cc(c3O[C@@H]2O[C@H](CO)[C@@H](O)[C@H](O)[C@H]2O[C@H]2C[C@](C)(N)[C@H](O)[C@H](C)O2)Oc2ccc(cc2Cl)[C@H]1O` [vancomycin], the solubility was 5 to 20 mg/mL (≈ 3.45 to 13.8 mM).

The values above are taken from patent publication EP0640095B1, “PROCESS FOR MAKING VANCOMYCIN” (ABBOTT LABORATORIES, priority 1992, dated 1993).
